Assay results reported in US6235973A, “Expression of magainin and PGL classes of antimicrobial peptide genes in plants, and their use in creating resistance to multiple plant pathogens” (Sanford Scientific, Inc., priority 1998, dated 2001).
“And” between values parts separate entries of the source, which are not always exact repeats. Equal values may be shown once. Residues, ends and D or L forms follow the SMILES beside them.

Key:
[1] = system: Phytophthora parasitica (vinca); test: In vitro MIC, microtiter serial dilution; assay type: cell-based
Botrytis cinerea [2] = test: Anti-Botrytis leaf disk bioassay, transgenic petunia; conditions: control = 100
Thielaviopsis basicola = test: In vitro MIC, microtiter serial dilution; assay type: cell-based
Botrytis cinerea [3] = test: Anti-Botrytis leaf disk bioassay, transgenic poinsettia; conditions: control = 100
[4] = system: Pseudomonas syringae and Erwinia carotovora; conditions: for activity against log phase-grown Pseudomomas and Erwinia: compared with MSI-99 and D5-C
[5] = system: Phytophthora parasitica (petunia); test: In vitro MIC, microtiter serial dilution; assay type: cell-based; conditions: germinated
Rhizoctonia solani R2 = conditions: Rhizoctonia solani R2, mycelial fragments
Erwinia carotovora = test: In vitro MIC, microtiter serial dilution; assay type: cell-based; conditions: inhibits all growth after 24 hrs
Fusarium solani = test: In vitro MIC, microtiter serial dilution; assay type: cell-based
Fusarium graminearum = assay type: cell-based; conditions: non-germinated
Pseudomonas syringae = test: In vitro MIC, microtiter serial dilution; assay type: cell-based; conditions: inhibits all growth after 24 hrs
Botrytis cinerea [6] = test: In vitro MIC, microtiter serial dilution; assay type: cell-based
[7] = plasmid 144, three distinct plants
[8] = plasmid 143, three distinct plants

CC[C@H](C)[C@H](NC(=O)[C@H](CCCCN)NC(=O)[C@H](CCCNC(=N)N)NC(=O)[C@H](C)NC(=O)[C@H](CC(C)C)NC(=O)[C@H](CCCCN)NC(=O)[C@H](CCCCN)NC(=O)[C@H](CC(C)C)NC(=O)[C@H](CCCNC(=N)N)NC(=O)[C@H](CCCNC(=N)N)NC(=O)CNC(=O)[C@@H](NC(=O)[C@H](CCCNC(=N)N)NC(=O)[C@H](CCCCN)NC(=O)[C@@H](NC(=O)[C@H](C)NC(=O)[C@H](CCCNC(=N)N)NC(=O)[C@H](CCCCN)NC(=O)[C@H](CCCNC(=N)N)NC(=O)[C@H](CCCCN)NC(=O)[C@@H](N)CCSC)C(C)C)C(C)C)C(=O)N[C@@H](C)C(=O)N[C@@H](CCCNC(=N)N)C(=O)N[C@@H](CC(C)C)C(=O)NCC(=O)N[C@H](C(=O)N[C@@H](C)C(=O)N[C@@H](Cc1ccccc1)C(=O)O)C(C)C [D5-C, reference compound] (H-MKRKRAVKRVGRRLKKLARKIARLGVAF-OH)
Minimum Inhibitory Concentration ([1]; germinated): 16 to 32 µg/mL | Minimum Inhibitory Concentration ([1]; non-germinated): 16 µg/mL | Disease Incidence, percent leaf disks infected relative to untransformed control (Botrytis cinerea [2]; [7]): 31% and 41% and 50% | Disease Incidence, percent leaf disks infected relative to untransformed control (Botrytis cinerea [2]; plasmid 148, three distinct plants): 52% and 70% and 75% | Minimum Inhibitory Concentration (Thielaviopsis basicola; germinated): 16 µg/mL | Minimum Inhibitory Concentration (Thielaviopsis basicola; non-germinated): 16 µg/mL | Disease Incidence, percent leaf disks infected relative to untransformed control (Botrytis cinerea [3]; [7]): 62% and 68% and 72% | Disease Incidence, percent leaf disks infected relative to untransformed control (Botrytis cinerea [3]; plasmid 165, three distinct plants): 42% and 60% and 67% | MIC [4]: < 2 µg/mL | Minimum Inhibitory Concentration [5]: 16 to 32 µg/mL | Minimum Inhibitory Concentration (Rhizoctonia solani R2): 32 to 64 µg/mL | Minimum Inhibitory Concentration (Erwinia carotovora): 2 µg/mL | Minimum Inhibitory Concentration (Fusarium solani; germinated): 4 µg/mL | Minimum Inhibitory Concentration (Fusarium solani; non-germinated): 4 µg/mL

CC[C@H](C)[C@H](NC(=O)CNC(=O)[C@@H](N)CCSC)C(=O)NCC(=O)N[C@@H](CCCCN)C(=O)N[C@@H](Cc1ccccc1)C(=O)N[C@@H](CC(C)C)C(=O)N[C@@H](CCCCN)C(=O)N[C@@H](CO)C(=O)N[C@@H](C)C(=O)N[C@@H](CCCCN)C(=O)N[C@@H](CCCCN)C(=O)N[C@@H](Cc1ccccc1)C(=O)NCC(=O)N[C@@H](CCCCN)C(=O)N[C@@H](C)C(=O)N[C@@H](Cc1ccccc1)C(=O)N[C@H](C(=O)N[C@@H](CCCCN)C(=O)N[C@H](C(=O)N[C@@H](CC(C)C)C(=O)N[C@@H](CC(N)=O)C(=O)N[C@@H](CO)C(=O)O)[C@@H](C)CC)C(C)C [MSI-99] (H-MGIGKFLKSAKKFGKAFVKILNS-OH; N-terminus and C-terminus assumed)
Minimum Inhibitory Concentration ([1]; germinated): 16 to 32 µg/mL | Minimum Inhibitory Concentration ([1]; non-germinated): 64 µg/mL | Minimum Inhibitory Concentration (Fusarium graminearum): 4 µg/mL | Disease Incidence, percent leaf disks infected relative to untransformed control (Botrytis cinerea [2]; [8]): 26% and 30% and 31% | Disease Incidence, percent leaf disks infected relative to untransformed control (Botrytis cinerea [2]; plasmid 147, three distinct plants): 36% and 60% and 70% | Minimum Inhibitory Concentration (Pseudomonas syringae): 1 µg/mL | Minimum Inhibitory Concentration (Botrytis cinerea [6]; germinated): 8 µg/mL | Minimum Inhibitory Concentration (Botrytis cinerea [6]; non-germinated): 8 µg/mL | Minimum Inhibitory Concentration (Thielaviopsis basicola; germinated): 4 µg/mL | Minimum Inhibitory Concentration (Thielaviopsis basicola; non-germinated): 4 µg/mL | Disease Incidence, percent leaf disks infected relative to untransformed control (Botrytis cinerea [3]; [8]): 48% and 61% and 69% | Disease Incidence, percent leaf disks infected relative to untransformed control (Botrytis cinerea [3]; plasmid 168, three distinct plants): 31% and 40% and 52% | MIC [4]: < 2 µg/mL | Minimum Inhibitory Concentration [5]: 8 to 16 µg/mL | Minimum Inhibitory Concentration (Rhizoctonia solani R2): 16 µg/mL | Minimum Inhibitory Concentration (Erwinia carotovora): 1 µg/mL | Minimum Inhibitory Concentration (Fusarium solani; germinated): 4 µg/mL | Minimum Inhibitory Concentration (Fusarium solani; non-germinated): 2 µg/mL

CC[C@H](C)[C@H](NC(=O)CNC(=O)[C@@H](N)CCSC)C(=O)NCC(=O)N[C@@H](CCCCN)C(=O)N[C@@H](Cc1ccccc1)C(=O)N[C@@H](CC(C)C)C(=O)N[C@@H](Cc1c[nH]cn1)C(=O)N[C@@H](CO)C(=O)N[C@@H](C)C(=O)N[C@@H](CCCCN)C(=O)N[C@@H](CCCCN)C(=O)N[C@@H](Cc1ccccc1)C(=O)NCC(=O)N[C@@H](CCCCN)C(=O)N[C@@H](C)C(=O)N[C@@H](Cc1ccccc1)C(=O)N[C@H](C(=O)NCC(=O)N[C@@H](CCC(=O)O)C(=O)N[C@H](C(=O)N[C@@H](CCSC)C(=O)N[C@@H](CC(N)=O)C(=O)N[C@@H](CO)C(=O)O)[C@@H](C)CC)C(C)C [Mag 2] (H-MGIGKFLHSAKKFGKAFVGEIMNS-OH; N-terminus and C-terminus assumed)
Minimum Inhibitory Concentration ([1]; germinated): > 128 µg/mL | Minimum Inhibitory Concentration ([1]; non-germinated): > 256 µg/mL | Minimum Inhibitory Concentration (Fusarium graminearum): 4 µg/mL | Minimum Inhibitory Concentration (Pseudomonas syringae): 32 µg/mL | Minimum Inhibitory Concentration (Botrytis cinerea [6]; germinated): 8 µg/mL | Minimum Inhibitory Concentration (Botrytis cinerea [6]; non-germinated): 8 to 16 µg/mL | Minimum Inhibitory Concentration (Thielaviopsis basicola; germinated): 4 µg/mL | Minimum Inhibitory Concentration (Thielaviopsis basicola; non-germinated): 8 µg/mL | activity against log phase-grown Pseudomomas and Erwinia [4]: significantly less active | Minimum Inhibitory Concentration [5]: > 128 µg/mL | Minimum Inhibitory Concentration (Rhizoctonia solani R2): 16 to 32 µg/mL | Minimum Inhibitory Concentration (Erwinia carotovora): 32 µg/mL | Minimum Inhibitory Concentration (Fusarium solani; germinated): 4 to 8 µg/mL | Minimum Inhibitory Concentration (Fusarium solani; non-germinated): 4 µg/mL

CC[C@H](C)[C@H](NC(=O)[C@H](C)NC(=O)CNC(=O)[C@H](C)NC(=O)[C@H](CCCCN)NC(=O)[C@H](CO)NC(=O)[C@H](C)NC(=O)[C@H](CCSC)NC(=O)CN)C(=O)N[C@@H](C)C(=O)NCC(=O)N[C@@H](CCCCN)C(=O)N[C@H](C(=O)N[C@@H](C)C(=O)N[C@@H](CCCCN)C(=O)N[C@H](C(=O)N[C@@H](C)C(=O)N[C@@H](CC(C)C)C(=O)N[C@@H](CCCCN)C(=O)N[C@@H](C)C(=O)N[C@@H](CC(C)C)C(N)=O)C(C)C)[C@@H](C)CC [PGL] (H-GMASKAGAIAGKIAKVALKAL-NH2)
Minimum Inhibitory Concentration ([1]; germinated): > 128 µg/mL | Minimum Inhibitory Concentration ([1]; non-germinated): > 256 µg/mL | Minimum Inhibitory Concentration (Fusarium graminearum): 4 to 8 µg/mL | Minimum Inhibitory Concentration (Pseudomonas syringae): > 64 µg/mL | Minimum Inhibitory Concentration (Botrytis cinerea [6]; germinated): 8 µg/mL | Minimum Inhibitory Concentration (Botrytis cinerea [6]; non-germinated): 4 to 8 µg/mL | Minimum Inhibitory Concentration (Thielaviopsis basicola; germinated): 4 µg/mL | Minimum Inhibitory Concentration (Thielaviopsis basicola; non-germinated): 4 to 8 µg/mL | activity against log phase-grown Pseudomomas and Erwinia [4]: significantly less active | Minimum Inhibitory Concentration [5]: > 128 µg/mL | Minimum Inhibitory Concentration (Rhizoctonia solani R2): 16 to 32 µg/mL | Minimum Inhibitory Concentration (Erwinia carotovora): 32 µg/mL | Minimum Inhibitory Concentration (Fusarium solani; germinated): 8 to 16 µg/mL | Minimum Inhibitory Concentration (Fusarium solani; non-germinated): 4 µg/mL
